Legend:
PI4KIIIB = PI4KIIIB (Bos taurus (Bovine), UniProt O02810); assay: PI4KIIIβ kinase assay (immunoprecipitated HA-tagged enzyme, [γ-32P]-ATP); type: biochemical; conditions: kinase activity
PI3KC2G = PI3KC2G (Homo sapiens (Human), UniProt O75747); assay: PI3KC2G kinase assay; type: biochemical; conditions: kinase activity
Protocol: PI-kinase assay: Compounds are tested in C.1.1. PI kinase assays as described by Shokat et al., “A membrane capture assay for lipid kinase activity.” Nat. Protoc.
Selected compounds of Table 1 and 2 were prepared and tested for inhibition activity in a variety of kinase assays.

PI4KIIIA = PI4KIIIA (Homo sapiens (Human), UniProt P42356); assay: PI4KIIIα kinase assay (immunoprecipitated HA-tagged enzyme, [γ-32P]-ATP); type: biochemical; conditions: kinase activity
Chain of PI4KIIIA (P42356 whole entry): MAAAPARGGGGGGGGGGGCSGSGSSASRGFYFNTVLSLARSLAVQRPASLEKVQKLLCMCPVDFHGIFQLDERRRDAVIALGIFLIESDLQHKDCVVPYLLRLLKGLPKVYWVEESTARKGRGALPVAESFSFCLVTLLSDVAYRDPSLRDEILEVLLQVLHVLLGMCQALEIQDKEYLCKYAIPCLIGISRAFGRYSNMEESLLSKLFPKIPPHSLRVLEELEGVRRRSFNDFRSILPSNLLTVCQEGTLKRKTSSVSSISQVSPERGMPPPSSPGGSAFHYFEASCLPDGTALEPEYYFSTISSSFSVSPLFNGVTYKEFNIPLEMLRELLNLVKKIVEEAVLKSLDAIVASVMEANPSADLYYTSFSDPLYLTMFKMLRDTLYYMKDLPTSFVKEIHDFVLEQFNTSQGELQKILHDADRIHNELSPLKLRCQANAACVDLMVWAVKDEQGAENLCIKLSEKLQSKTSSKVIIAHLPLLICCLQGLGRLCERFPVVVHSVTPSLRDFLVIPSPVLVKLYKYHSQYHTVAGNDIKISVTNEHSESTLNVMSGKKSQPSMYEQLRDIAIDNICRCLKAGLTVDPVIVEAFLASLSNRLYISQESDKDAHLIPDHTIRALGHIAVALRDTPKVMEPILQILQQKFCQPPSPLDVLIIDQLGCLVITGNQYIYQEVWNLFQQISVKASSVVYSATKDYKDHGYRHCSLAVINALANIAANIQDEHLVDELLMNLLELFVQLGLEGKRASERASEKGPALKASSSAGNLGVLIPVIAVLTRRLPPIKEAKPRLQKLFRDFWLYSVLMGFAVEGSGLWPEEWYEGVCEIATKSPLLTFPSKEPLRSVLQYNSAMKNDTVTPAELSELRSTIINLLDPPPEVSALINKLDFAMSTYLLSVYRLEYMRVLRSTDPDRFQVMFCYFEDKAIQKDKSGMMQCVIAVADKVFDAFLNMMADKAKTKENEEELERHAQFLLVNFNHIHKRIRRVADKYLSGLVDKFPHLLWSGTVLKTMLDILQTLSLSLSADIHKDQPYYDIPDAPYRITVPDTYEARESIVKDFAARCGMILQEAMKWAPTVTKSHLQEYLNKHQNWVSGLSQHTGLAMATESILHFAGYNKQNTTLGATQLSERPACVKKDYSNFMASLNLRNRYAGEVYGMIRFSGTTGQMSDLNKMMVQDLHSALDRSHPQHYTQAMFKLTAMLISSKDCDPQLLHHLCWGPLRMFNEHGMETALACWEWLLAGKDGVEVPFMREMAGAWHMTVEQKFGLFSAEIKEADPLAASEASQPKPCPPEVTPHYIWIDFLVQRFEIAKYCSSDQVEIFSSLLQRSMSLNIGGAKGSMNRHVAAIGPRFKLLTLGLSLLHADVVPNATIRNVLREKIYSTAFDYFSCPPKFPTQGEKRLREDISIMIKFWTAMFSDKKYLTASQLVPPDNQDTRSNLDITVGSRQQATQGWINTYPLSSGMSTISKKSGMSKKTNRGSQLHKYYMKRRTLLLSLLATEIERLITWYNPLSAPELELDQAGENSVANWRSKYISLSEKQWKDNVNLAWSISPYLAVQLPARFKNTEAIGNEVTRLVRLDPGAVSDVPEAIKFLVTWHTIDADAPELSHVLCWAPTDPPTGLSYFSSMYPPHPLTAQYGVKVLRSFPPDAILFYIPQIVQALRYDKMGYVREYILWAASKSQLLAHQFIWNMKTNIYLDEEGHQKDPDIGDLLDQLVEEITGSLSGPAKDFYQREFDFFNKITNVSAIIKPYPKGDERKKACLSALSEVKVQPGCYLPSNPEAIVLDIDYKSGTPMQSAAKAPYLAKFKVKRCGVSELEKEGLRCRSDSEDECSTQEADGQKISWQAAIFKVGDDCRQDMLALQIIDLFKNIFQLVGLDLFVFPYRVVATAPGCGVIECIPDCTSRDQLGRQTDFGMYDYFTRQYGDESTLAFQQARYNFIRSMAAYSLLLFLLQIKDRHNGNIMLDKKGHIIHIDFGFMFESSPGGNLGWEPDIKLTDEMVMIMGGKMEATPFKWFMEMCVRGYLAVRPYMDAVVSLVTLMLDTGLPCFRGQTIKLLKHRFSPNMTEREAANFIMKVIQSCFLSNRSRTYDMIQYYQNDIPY

PI3K p110g = PI3K p110g (Homo sapiens (Human), UniProt P48736); assay: PI3K p110g kinase assay; type: biochemical; conditions: kinase activity
Chain of PI3K p110g (P48736 whole entry): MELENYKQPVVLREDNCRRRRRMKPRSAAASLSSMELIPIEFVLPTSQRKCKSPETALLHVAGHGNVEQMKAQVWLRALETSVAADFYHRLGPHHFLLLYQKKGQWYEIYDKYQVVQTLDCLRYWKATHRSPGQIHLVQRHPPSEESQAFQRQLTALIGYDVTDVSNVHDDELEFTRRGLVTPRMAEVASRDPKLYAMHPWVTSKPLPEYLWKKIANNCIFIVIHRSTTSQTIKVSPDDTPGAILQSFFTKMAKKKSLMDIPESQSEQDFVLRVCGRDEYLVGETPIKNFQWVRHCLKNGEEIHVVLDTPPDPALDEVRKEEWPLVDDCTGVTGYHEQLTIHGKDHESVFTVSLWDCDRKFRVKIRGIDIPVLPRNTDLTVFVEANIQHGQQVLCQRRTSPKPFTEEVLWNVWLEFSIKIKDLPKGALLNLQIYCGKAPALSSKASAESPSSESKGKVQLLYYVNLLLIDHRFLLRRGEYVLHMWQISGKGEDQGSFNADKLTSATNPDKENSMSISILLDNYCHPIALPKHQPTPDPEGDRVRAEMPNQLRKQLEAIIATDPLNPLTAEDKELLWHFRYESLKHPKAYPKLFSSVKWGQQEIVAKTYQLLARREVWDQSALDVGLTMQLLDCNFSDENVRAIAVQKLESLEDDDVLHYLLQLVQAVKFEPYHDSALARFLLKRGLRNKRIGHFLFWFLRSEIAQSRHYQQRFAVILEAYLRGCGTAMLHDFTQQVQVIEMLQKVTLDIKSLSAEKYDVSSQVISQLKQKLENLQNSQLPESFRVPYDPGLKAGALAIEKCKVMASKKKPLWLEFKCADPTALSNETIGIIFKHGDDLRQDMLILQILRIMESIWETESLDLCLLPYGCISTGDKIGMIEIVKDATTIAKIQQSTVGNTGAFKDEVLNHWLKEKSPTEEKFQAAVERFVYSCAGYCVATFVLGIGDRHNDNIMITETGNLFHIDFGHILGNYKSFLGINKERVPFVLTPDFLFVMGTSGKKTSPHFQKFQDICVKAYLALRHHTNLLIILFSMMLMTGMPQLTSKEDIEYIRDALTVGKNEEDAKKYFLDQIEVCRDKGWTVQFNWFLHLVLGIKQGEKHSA

HRV = assay: Rhinovirus antiviral assay; type: cell-based; conditions: Human rhinovirus sp.; Table 5
EV71 = EV71 antiviral assay; type: cell-based; conditions: Enterovirus A, Table 5
Cell toxicity (CC50) = type: cell-based; conditions: human, HuH-7 cells

Chain of PI3KC2G (O75747 whole entry): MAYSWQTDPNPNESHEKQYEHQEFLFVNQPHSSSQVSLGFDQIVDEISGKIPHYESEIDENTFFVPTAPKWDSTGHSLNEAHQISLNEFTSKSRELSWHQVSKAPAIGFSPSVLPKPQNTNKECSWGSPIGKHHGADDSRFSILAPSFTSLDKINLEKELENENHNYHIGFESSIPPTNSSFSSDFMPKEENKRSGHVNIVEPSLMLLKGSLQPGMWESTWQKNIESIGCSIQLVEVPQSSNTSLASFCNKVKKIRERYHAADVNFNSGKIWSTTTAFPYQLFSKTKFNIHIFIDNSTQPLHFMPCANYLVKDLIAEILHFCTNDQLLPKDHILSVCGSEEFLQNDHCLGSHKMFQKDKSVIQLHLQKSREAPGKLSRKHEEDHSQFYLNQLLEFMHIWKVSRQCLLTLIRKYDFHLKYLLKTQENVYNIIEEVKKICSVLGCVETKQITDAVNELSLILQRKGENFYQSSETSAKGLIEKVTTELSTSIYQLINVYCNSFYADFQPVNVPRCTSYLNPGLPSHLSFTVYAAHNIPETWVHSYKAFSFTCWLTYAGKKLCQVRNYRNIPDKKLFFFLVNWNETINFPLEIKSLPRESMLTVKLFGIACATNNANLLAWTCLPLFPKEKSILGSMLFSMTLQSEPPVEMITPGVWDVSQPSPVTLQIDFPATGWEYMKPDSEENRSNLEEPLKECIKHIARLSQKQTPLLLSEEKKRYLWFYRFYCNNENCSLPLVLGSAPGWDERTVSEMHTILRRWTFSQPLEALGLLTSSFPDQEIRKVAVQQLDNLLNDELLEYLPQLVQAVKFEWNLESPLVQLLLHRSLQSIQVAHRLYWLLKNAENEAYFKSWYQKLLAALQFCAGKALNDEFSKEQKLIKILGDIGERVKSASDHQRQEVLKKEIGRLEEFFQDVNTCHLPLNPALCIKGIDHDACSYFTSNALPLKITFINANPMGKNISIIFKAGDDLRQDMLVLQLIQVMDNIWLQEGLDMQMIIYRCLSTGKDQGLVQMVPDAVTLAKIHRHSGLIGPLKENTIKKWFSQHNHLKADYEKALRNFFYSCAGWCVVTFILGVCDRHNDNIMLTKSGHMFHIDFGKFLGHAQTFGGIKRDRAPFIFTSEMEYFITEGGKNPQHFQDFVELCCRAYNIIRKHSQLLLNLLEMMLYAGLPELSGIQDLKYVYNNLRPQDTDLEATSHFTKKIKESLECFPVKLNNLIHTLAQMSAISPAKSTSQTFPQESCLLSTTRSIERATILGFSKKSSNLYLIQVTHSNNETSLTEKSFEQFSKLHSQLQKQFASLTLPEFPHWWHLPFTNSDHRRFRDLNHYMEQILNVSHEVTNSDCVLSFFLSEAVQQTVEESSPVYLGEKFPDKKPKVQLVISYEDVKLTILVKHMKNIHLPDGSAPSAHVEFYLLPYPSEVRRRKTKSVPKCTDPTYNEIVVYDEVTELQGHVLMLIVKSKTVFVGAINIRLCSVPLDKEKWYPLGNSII

Structure (SMILES) | IC50 (PI4KIIIB) | EC50 (HRV) | EC50 (EV71) | also measured
COc1ccc(-c2sc(NCC3CCCCC3)nc2C)cc1S(=O)(=O)NCC1CCCCC1 [Compound S-128] | 100 to 1000 nM |  |  | IC50 (PI3KC2G): > 10000 nM; IC50 (PI4KIIIA): > 10000 nM; IC50 (PI3K p110g): > 10000 nM
COc1ccc(-c2sc(NC(=O)CC3CCOCC3)nc2C)cc1S(=O)(=O)Nc1cccc(C)c1 [Compound S-226] | < 100 nM |  |  | 
COc1ccc(-c2sc(NC(C)C3CCOCC3)nc2C)cc1S(=O)(=O)Nc1ncccc1F (centres unmarked) [Compound S-330] |  | 1000 to 10000 nM | 100 to 1000 nM | 
COc1ccc(-c2sc(NC(C)C3CCOCC3)nc2C)cc1S(=O)(=O)Nc1ncccc1C (centres unmarked) [Compound S-329] |  | 1 to 100 nM | 1 to 100 nM | 
COc1ccc(-c2sc(NCC3CCCCC3)nc2C)cc1S(=O)(=O)NC1CCN(C2CC2)CC1 [Compound S-135] | < 100 nM |  |  | 
COc1ncc(-c2sc(NC(C)C3CCOCC3)nc2C)cc1S(=O)(=O)Nc1ccc(F)cc1F (centres unmarked) [Compound S-336] |  | 1 to 100 nM | 1 to 100 nM | 
COc1ccc(-c2sc(NC3CCCCC3)nc2C)cc1S(=O)(=O)NC1CCCC1 [Compound S-129] | 100 to 1000 nM |  |  | IC50 (PI3KC2G): > 10000 nM; IC50 (PI4KIIIA): > 10000 nM; IC50 (PI3K p110g): > 10000 nM
COc1ccc(-c2sc(NCCC3CCCCC3)nc2C)cc1S(=O)(=O)NC1CCNCC1 [Compound S-202] | < 100 nM |  |  | 
COc1ncc(-c2sc(NC(C)C3CCOCC3)nc2C)cc1S(=O)(=O)Nc1ccccc1C (centres unmarked) [Compound S-335] |  | 1 to 100 nM | 1 to 100 nM | 
COc1ccc(-c2sc(NC(C)C3CCOCC3)nc2C)cc1S(=O)(=O)Nc1ccccc1C (centres unmarked) [Compound S-315] |  | 1 to 100 nM | 1 to 100 nM | 
COc1ncc(-c2sc(NC(C)C3CCOCC3)nc2C)cc1S(=O)(=O)Nc1ccc(O)cc1F (centres unmarked) [Compound S-334] |  | 1 to 100 nM | 1 to 100 nM | 
COc1ccc(-c2sc(NC(=O)C3CCCC3)nc2C)cc1S(=O)(=O)Nc1ccc(CO)cc1 [Compound S-41] | < 100 nM |  |  | 
COc1ccc(-c2sc(NC(=O)Cc3ccccc3)nc2C)cc1S(=O)(=O)Nc1ccc(O)cc1 [Compound S-49] | < 100 nM |  |  | 
COc1ncc(-c2sc(NC(C)C3CCOCC3)nc2C)cc1S(=O)(=O)Nc1ccccc1Cl (centres unmarked) [Compound S-341] |  | 1 to 100 nM | 1 to 100 nM | 
COc1ncc(-c2sc(NC(C)C3CCOCC3)nc2C)cc1S(=O)(=O)Nc1ccc(O)cc1C (centres unmarked) [Compound S-340] |  | 1 to 100 nM | 1 to 100 nM | 
COc1ncc(-c2sc(NC(C)C3CCOCC3)nc2C)cc1S(=O)(=O)Nc1ccc(F)cc1C (centres unmarked) [Compound S-338] |  | 1 to 100 nM | 1 to 100 nM | 
COc1ccc(-c2sc(N[C@@H](C)C3CCCCC3)nc2C)cc1S(=O)(=O)N[C@H]1CC[C@@H](O)CC1 [Compound S-206] | 1000 to 10000 nM |  |  | 
COc1ccc(-c2sc(NCC3CCCCC3)nc2C)cc1S(=O)(=O)NC1CC1 [Compound S-127] | 100 to 1000 nM |  |  | IC50 (PI3KC2G): > 10000 nM; IC50 (PI4KIIIA): > 10000 nM; IC50 (PI3K p110g): > 10000 nM
COc1ncc(-c2sc(NC(C)C3CCOCC3)nc2C)cc1S(=O)(=O)Nc1ccc(F)cc1Cl (centres unmarked) [Compound S-337] |  | 100 to 1000 nM | 1 to 100 nM | 
COc1ccc(-c2sc(NCC3CCCCC3)nc2C)cc1S(=O)(=O)Nc1ccccc1F [Compound S-29] |  |  |  | CC50 (Cell toxicity (CC50)): > 10000 nM
COc1ccc(-c2sc(NC(C)C3CCOCC3)nc2C)cc1S(=O)(=O)Nc1ccc(O)cc1 (centres unmarked) [Compound S-319] |  | 1 to 100 nM | 1 to 100 nM | 

Structure (SMILES) | IC50 (PI4KIIIB) | EC50 (HRV) | EC50 (EV71) | also measured
COc1ccc(-c2sc(NC(C)(C)C)nc2C)cc1S(=O)(=O)NC1CCNCC1 [Compound S-219] | < 100 nM |  |  | 
COc1ncc(-c2sc(NC(C)C3CCOCC3)nc2C)cc1S(=O)(=O)Nc1ccccc1F (centres unmarked) [Compound S-339] |  | 1 to 100 nM | 1 to 100 nM | 
COc1ccc(-c2sc(NC(C)C3CCOCC3)nc2C)cc1S(=O)(=O)Nc1c(F)cncc1F (centres unmarked) [Compound S-333] |  | 100 to 1000 nM | 100 to 1000 nM | 
COc1ccc(-c2sc(NC(C)C3CCOCC3)nc2C)cc1S(=O)(=O)Nc1ccc(O)cc1C (centres unmarked) [Compound S-317] |  | 1 to 100 nM | 1 to 100 nM | 
COc1ccc(-c2sc(NC(C)C3CCOCC3)nc2C)cc1S(=O)(=O)Nc1c(F)cccc1F (centres unmarked) [Compound S-321] |  | 1 to 100 nM | 1 to 100 nM | 
COc1ccc(-c2sc(NC3CCCCC3)nc2C)cc1S(=O)(=O)N[C@H]1CC[C@@H](O)CC1 [Compound S-167] | < 100 nM |  |  | 
COc1ccc(-c2sc(N[C@H](C)C3CCCCC3)nc2C)cc1S(=O)(=O)N[C@H]1CCNC1 [Compound S-201] | < 100 nM |  |  | 
COc1ccc(-c2sc(NC3CCCCC3)nc2C)cc1S(=O)(=O)N[C@H]1CC[C@H](O)CC1 [Compound S-166] | < 100 nM |  |  | 
COc1ccc(NS(=O)(=O)c2cc(-c3sc(NC(=O)CC4CCCCC4)nc3C)ccc2OC)c(C)c1 [Compound S-85] |  |  |  | CC50 (Cell toxicity (CC50)): > 10000 nM
COc1ccc(-c2sc(NCC3CCCCC3)nc2C)cc1S(=O)(=O)NC1CCN(C2CCCC2)CC1 [Compound S-133] | < 100 nM |  |  | 
COc1ccc(-c2sc(NC(C)C3CCOCC3)nc2C)cc1S(=O)(=O)Nc1c(F)cccc1Cl (centres unmarked) [Compound S-322] |  | 1 to 100 nM | 1 to 100 nM | 
COc1ccc(-c2sc(NC(C)C3CCOCC3)nc2C)cc1S(=O)(=O)Nc1ccc(C(=O)O)cc1 (centres unmarked) [Compound S-325] |  | 1000 to 10000 nM | 1000 to 10000 nM | 
COc1ccc(-c2sc(NC(=O)CC3CCCC3)nc2C)cc1S(=O)(=O)N[C@H]1CC[C@H](O)CC1 [Compound S-151] | < 100 nM |  |  | 
COc1ccc(-c2sc(NC(C)C3CCOCC3)nc2C)cc1S(=O)(=O)Nc1ccc(O)cc1Cl (centres unmarked) [Compound S-318] |  | 1 to 100 nM | < 1 nM | 
COc1ccc(NS(=O)(=O)c2cc(-c3sc(NC4CCCCCC4)nc3C)ccc2OC)c(C)c1 [Compound S-89] |  |  |  | CC50 (Cell toxicity (CC50)): > 10000 nM
COc1ccc(-c2sc(NCCC3CCCCC3)nc2C)cc1S(=O)(=O)NC1CCC(O)C1 (centres unmarked) [Compound S-214] |  |  |  | IC50 (PI3K p110g): > 10000 nM
Cc1ccc(-c2sc(NC(=O)CC3CCCC3)nc2C)cc1S(=O)(=O)NC1CCNCC1 [Compound S-188] | < 100 nM |  |  | 
COc1ccc(-c2sc(NC(C)C3CCOCC3)nc2C)cc1S(=O)(=O)NC1CCC(OC(C)=O)CC1 (centres unmarked) [Compound S-327] |  | 1 to 100 nM | 1 to 100 nM | 
COc1ccc(-c2sc(NC(=O)[C@@H](C)C3CCCCC3)nc2C)cc1S(=O)(=O)Nc1ccc(O)cc1 [Compound S-138] |  |  |  | CC50 (Cell toxicity (CC50)): > 10000 nM
COc1ccc(-c2sc(NC(=O)CC3CCCC3)nc2C)cc1S(=O)(=O)Nc1ccc(C)nc1 [Compound S-100] | 100 to 1000 nM |  |  | IC50 (PI4KIIIA): > 10000 nM; IC50 (PI3K p110g): > 10000 nM
COc1ccc(-c2sc(NC(=O)CC3CCCC3)nc2C)cc1S(=O)(=O)NCCCCO [Compound S-152] | < 100 nM |  |  | 

Structure (SMILES) | IC50 (PI4KIIIB) | EC50 (HRV) | EC50 (EV71) | also measured
COc1ncc(-c2sc(NC(C)C3CCOCC3)nc2C)cc1S(=O)(=O)Nc1ccc(O)cc1Cl (centres unmarked) [Compound S-375] |  | 1 to 100 nM | 1 to 100 nM | 
COc1ccc(-c2sc(NC(=O)CC3CCOCC3)nc2C)cc1S(=O)(=O)Nc1ccccc1C [Compound S-228] |  |  |  | CC50 (Cell toxicity (CC50)): > 10000 nM
COc1ccc(-c2sc(NC(=O)C3CCCC3)nc2C)cc1S(=O)(=O)N[C@H]1CC[C@H](O)CC1 [Compound S-9] | < 100 nM |  |  | 
COc1ccc(-c2sc(NC(C)C3CCOCC3)nc2C)cc1S(=O)(=O)Nc1c(C)cccc1F (centres unmarked) [Compound S-323] |  | < 1 nM | < 1 nM | 
COc1ccc(-c2sc(NC(C)C3CCOCC3)nc2C)cc1S(=O)(=O)Nc1cccc(O)c1 (centres unmarked) [Compound S-320] |  | 1 to 100 nM | 1 to 100 nM | 
COc1ccc(-c2sc(N[C@@H](C)C3CCCCC3)nc2C)cc1S(=O)(=O)N[C@H]1CC[C@H](O)CC1 [Compound S-183] | < 100 nM |  |  | 
COc1ccc(-c2sc(NCC3CCCCC3)nc2C)cc1S(=O)(=O)NC1CCN(C(C)C)CC1 [Compound S-134] | < 100 nM |  |  | 
COc1ncc(-c2sc(NC(=O)CC3CCOCC3)nc2C)cc1S(=O)(=O)Nc1ccc(F)cc1F [Compound S-258] | 1000 to 10000 nM |  |  | 
COc1ccc(-c2sc(NCC3CCCCC3)nc2C)cc1S(=O)(=O)NC1CCN(C2CCCCC2)CC1 [Compound S-136] | < 100 nM |  |  | 
COc1ccc(-c2sc(NC3CCCCC3)nc2C)cc1S(=O)(=O)NC1CCCCCC1 [Compound S-131] | 100 to 1000 nM |  |  | IC50 (PI3KC2G): > 10000 nM; IC50 (PI4KIIIA): > 10000 nM
COc1ccc(-c2sc(N[C@H](C)C3CCCCC3)nc2C)cc1S(=O)(=O)NC1CCCNC1 (some centres unmarked) [Compound S-148] |  |  |  | IC50 (PI3K p110g): > 10000 nM
COC(=O)c1ccc(NS(=O)(=O)c2cc(-c3sc(NC(C)C4CCOCC4)nc3C)ccc2OC)cc1 (centres unmarked) [Compound S-324] |  | 1 to 100 nM | 1 to 100 nM | 
COc1ccc(-c2sc(NCC(C)C)nc2C)cc1S(=O)(=O)N[C@H]1CC[C@@H](O)CC1 [Compound S-222] | < 100 nM |  |  | 
COc1ccc(-c2sc(NC(C)C3CCOCC3)nc2C)cc1S(=O)(=O)NC1CCNCC1 (centres unmarked) [Compound S-326] |  | 100 to 1000 nM | 1 to 100 nM | 
COc1ccc(-c2sc(NC(=O)CC3CCOCC3)nc2C)cc1S(=O)(=O)Nc1ccccc1F [Compound S-230] | < 100 nM |  |  | 
COc1ccc(-c2sc(NCC(C)C)nc2C)cc1S(=O)(=O)N[C@H]1CC[C@H](O)CC1 [Compound S-221] | < 100 nM |  |  | 
COc1ccc(-c2sc(NC(C)C3CCOCC3)nc2C)cc1S(=O)(=O)Nc1cccnc1C (centres unmarked) [Compound S-331] |  | 1 to 100 nM | 1 to 100 nM | 
COc1ccc(-c2sc(NCC3CCCCC3)nc2C)cc1S(=O)(=O)NC1CCNCC1 [Compound S-123] | < 100 nM |  |  | 
COc1ccc(-c2sc(N[C@H](C)C3CCCCC3)nc2C)cc1S(=O)(=O)N[C@@H]1CCNC1 [Compound S-197] | < 100 nM |  |  | 
COc1ccc(-c2sc(N[C@H](C)C3CCCCC3)nc2C)cc1S(=O)(=O)N[C@H]1CC[C@@H](O)CC1 [Compound S-198] | 100 to 1000 nM |  |  | 
COc1ccc(-c2sc(NC(=O)CC3CCCC3)nc2C)cc1S(=O)(=O)N1CC[C@@H](O)C1 [Compound S-153] | < 100 nM |  |  | 
